Legend:
NB4 cell line = assay: Granulocytic differentiation, NBT reduction test, NB4 cells; format: cell-based, human; conditions: for percentage of cells differentiated during the treatment: 100 μM 8-CPT-cAMP where added, NBT positive cells
Procedure: (§1) The cells from cell line NB4 and cell line NB4-LR1, resistant at maturation only by ATRA, were grown as described in LANOTTE et al. (1991, previously cited) and in RUCHAUD et al. (Proc. Natl. Acad. Sci., vol. 91, p: 8428-8432, 1994). The cells were then treated for 4 days in the presence of 1 μM of all-trans retinoic acid (ATRA, SIGMA-ALRICH) alone or with the addition of 100 μM of an cAMP analogue (8-CPT-cAMP, SIGMA-ALRICH). The cell proliferation was determined on a daily basis by counting the cells using a cell counter (BECKMAN COULTER FRANCE SA) from day 0, following the addition of the therapeutic agent, to day 4.
(§2) In parallel, the evolution of the differentiation was determined on a daily basis throughout the treatment. The granulocytic differentiation was simultaneously evaluated according to the morphological and biochemical criteria. The morphological analysis was carried out after May-Grünwald colouring. The biochemical analysis was carried out by a coloration test based on the reduction of NBT (nitro blue tetrazolium) that is used to measure the oxidative ability of the mature cells to reduce the NBT colorant. For this purpose, 0.5 to 1×10^5 cells were centrifuged for 5 minutes at 190 g. The cell sediment was then recovered in 200 μl of saline phosphate buffer (PBS) with the addition of NBT (SIGMA ALDRICH, 1 mg/ml) and PMA (Phorbol 12-myristate 13-acetate, SIGMA, 10^−7M) and then was incubated for 20 minutes at 37° C. The cells were then collected on slides by Cytospin® centrifugation, then observed by phase contrast microscopy. A minimum of 200 cells per slide were examined under light microscope and a differentiation percentage was calculated on the basis of the number of positive NBT cells.

NB4-LR1 cell line = assay: Granulocytic differentiation, NBT reduction test, NB4-LR1 cells; format: cell-based, human; conditions: for percentage of cells differentiated during the treatment: 100 μM 8-CPT-cAMP where added, NBT positive cells
Procedure: as §1, §2

miRNAs in NB4 cells = assay: Northern blot of miRNA expression in NB4 cells; format: cell-based, human; conditions: 1 μM ATRA
Procedure: (§3) The total RNA was extracted from the cells of the NB4 cell lines treated or not treated with 1 μM of ATRA, at the same time intervals as in example 1, and using the Tri-Reagent® kit (SIGMA) according to the manufacturer's instructions. The analysis of the low molecular weight RNA by northern blot was carried out as described in LLAVE et al. (2002, previously cited). All of the northern blot experiments were carried out in double. DNA oligonucleotides complementary to the sequences of the miRNAs analysed were labelled at their end with ATP γ-P^32 using the polynucleotide kinase T4 (NEW ENGLAND BIOLABS) by following the manufacturer's instructions.
The quantity of RNA in each well was controlled by coloration of the gel with ethidium bromide and visualisation of the ribosomal RNA (rRNA) under UV light. […] In addition, the miRNAs that seem to belong to a same precursor effectively present a similar expression profile over time.
(§4) To formally establish the correlation between the expression of the different miRNAs identified and the differentiation in granulocytes, cells from NB4 and NB4-LR1 cell lines were cultivated in the presence or absence of ATRA as described in example 1. Northern blot experiments were carried out according to the protocol described in example 2. The different northern blot experiments were carried out with probes complementary to the miRNAs miR-23a, miR-17, miR-18, miR-19a, miR-19b, miR-20, miR-23 and miR-92.
To confirm the correlation between the expression of different miRNAs, and in particular miR-17, miR-18, miR-19a, miR19b, miR-20 and miR-92 and the differentiation in granulocytes, cells from NB4 and NB4-LR1 cell lines were cultivated in the presence or absence of ATRA/cAMP as described in example 1. Following an ATRA/cAMP co-treatment, the differentiation of the cells in the NB4-LR1 cell line in granulocytes is restored. Northern blot experiments were carried out according to the protocol described in example 2. […]

miRNAs in NB4-LR1 cells = assay: Northern blot of miRNA expression in NB4-LR1 cells; format: cell-based, human; conditions: NB4-LR1 compared with NB4; ATRA
Procedure: as §3
as §4, with “miR-92. […]” for “miR-92.”

miR23a in NB4-LR2 cells = assay: Northern blot of miR23a expression in NB4-LR2 cells; format: cell-based, human; conditions: ATRA
NB4-LR2 cell line = conditions: truncated PML-RARa; cited from earlier work

## CC1=C(/C=C/C(C)=C/C=C/C(C)=C/C(=O)O)C(C)(C)CCC1 [ATRA, all-trans retinoic acid]
NB4 cell line
  differentiation of the cells (in words): differentiate
NB4 cell line; day 0, 1 μM ATRA
  percentage of cells differentiated during the treatment: 0%
NB4 cell line; day 1, 1 μM ATRA
  percentage of cells differentiated during the treatment: 6%
NB4 cell line; day 2, 1 μM ATRA
  percentage of cells differentiated during the treatment: 20%
NB4 cell line; day 3, 1 μM ATRA
  percentage of cells differentiated during the treatment: 43%
NB4 cell line; day 4, 1 μM ATRA
  percentage of cells differentiated during the treatment: 95%
NB4-LR1 cell line
  differentiation of the cells (in words): only the cells in the NB4 cell line differentiate
NB4-LR1 cell line; day 0, 1 μM ATRA
  percentage of cells differentiated during the treatment: 0%
NB4-LR1 cell line; day 1, 1 μM ATRA
  percentage of cells differentiated during the treatment: 0%
NB4-LR1 cell line; day 2, 1 μM ATRA
  percentage of cells differentiated during the treatment: 2%
NB4-LR1 cell line; day 3, 1 μM ATRA
  percentage of cells differentiated during the treatment: 5%
NB4-LR1 cell line; day 4, 1 μM ATRA
  percentage of cells differentiated during the treatment: 5%
miRNAs in NB4 cells; 0 to 4 days
  expression profile of miR-19b and miR-92, time of maximum: maximum of expression on day three of treatment
  level of expression of miR-23a: increases over time
miRNAs in NB4 cells; against non treated cells
  level of expression of miR-19b and miR-92 on day 4 of treatment: lower than their level of expression in the non treated cells
miRNAs in NB4-LR1 cells
  expression profile of miR-17, miR-18, miR-19a, miR19b, miR-20 and miR-92: different expression profile between the NB4 and NB4-LR1 cells
miR23a in NB4-LR2 cells
  expression of miR23a: an increase in the expression of miR23a is not observed
NB4-LR2 cell line
  sensitivity of the cells to induced differentiation: insensitive

Source: US20090029932A1, “Identification and use of miRNAs for differentiating myeloid leukemia cells” (Centre National De La Recherche Scientifique (CNRS), priority 2004, published 2009)
